Structures are written as SMILES. “And” between values parts separate entries of the source, which are not always exact repeats. Identical values can stand only once. Toxic doses and inconclusive results are not listed.

The subject of the assay is BDF1 mice, P388 leukemia ip, median survival T/C. Put plainly: NCI In Vivo Anticancer Drug Screen. Data for tumor model P388 Leukemia (intraperitoneal) in B6D2F1 (BDF1) mice. The settings on record: endpoint: median survival time, higher = longer survival. The gist of the method:
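In tumour-bearing mice, survival after compound treatment is set against the vehicle group and given as a quotient.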

Setting [1] is: dose: 50.0 mg/kg/injection, schedule: Q01DX005 (ip), vehicle: saline with Tween-80.
Where [2] appears, read: dose: 100.0 mg/kg/injection, schedule: Q01DX005 (ip), vehicle: saline with Tween-80.
Setting [3] is: dose: 200.0 mg/kg/injection, schedule: Q01DX005 (ip), vehicle: saline with Tween-80.
Where [4] appears, read: dose: 50.0 mg/kg/injection, schedule: Q01DX009 (ip), vehicle: saline with Tween-80.
[5] abbreviates: dose: 100.0 mg/kg/injection, schedule: Q01DX009 (ip), vehicle: saline with Tween-80.
[6] abbreviates: dose: 50.0 mg/kg/injection, schedule: Q04DX003 (ip), vehicle: saline with Tween-80.
The mark [7] stands for this setting: dose: 100.0 mg/kg/injection, schedule: Q04DX003 (ip), vehicle: saline with Tween-80.
Setting [8] is: dose: 200.0 mg/kg/injection, schedule: Q04DX003 (ip), vehicle: saline with Tween-80.
Where [9] appears, read: dose: 400.0 mg/kg/injection, schedule: Q04DX003 (ip), vehicle: saline with Tween-80.
Where [10] appears, read: dose: 100.0 mg/kg/injection, schedule: Q04DX003 (ip), vehicle: Klucel (hydroxypropylcellulose) (HPC).
Where [11] appears, read: dose: 200.0 mg/kg/injection, schedule: Q01DX009 (ip), vehicle: saline with Tween-80.
Setting [12] is: dose: 5.0 mg/kg/injection, schedule: Q01DX009 (ip), vehicle: saline.
[13] abbreviates: dose: 10.0 mg/kg/injection, schedule: Q01DX009 (ip), vehicle: saline.

Turning to `C=C1C(=O)O[C@@H]2C[C@@H](C)[C@@H]3C=CC(=O)[C@@]3(C)[C@@H](O)[C@H]12`, the T/C is 109 % of control (dose: 0.88 mg/kg/injection, schedule: Q01DX009 (ip), vehicle: saline); 113 % of control (dose: 1.3 mg/kg/injection, schedule: Q01DX009 (ip), vehicle: saline); 116 % of control (dose: 2.0 mg/kg/injection, schedule: Q01DX009 (ip), vehicle: saline + alcohol); 116 % of control (dose: 4.0 mg/kg/injection, schedule: Q01DX010 (ip), vehicle: other); 116 % of control (dose: 5.0 mg/kg/injection, schedule: Q01DX009 (ip), vehicle: saline + alcohol); 109 % of control (dose: 5.0 mg/kg/injection, schedule: Q01DX009 (ip), vehicle: saline with Tween-80). In addition, the T/C by setting is: (dose: 5.0 mg/kg/injection, schedule: Q01DX010 (ip), vehicle: other) 112 % of control; (dose: 6.0 mg/kg/injection, schedule: Q01DX010 (ip), vehicle: other) 116 % of control; (dose: 8.0 mg/kg/injection, schedule: Q01DX009 (ip), vehicle: alcohol) 163 % of control; (dose: 8.0 mg/kg/injection, schedule: Q01DX009 (ip), vehicle: saline + alcohol) 168 % of control; (dose: 8.0 mg/kg/injection, schedule: Q01DX010 (ip), vehicle: other) 116 % of control.

Take `CC(C)C[CH2][Pb]([Cl])([CH2]CC(C)C)[CH2]CC(C)C`: the T/C is, setting by setting: (dose: 0.12 mg/kg/injection, schedule: Q01DX009 (ip), vehicle: Klucel (hydroxypropylcellulose) (HPC)) 104 % of control; (dose: 0.25 mg/kg/injection, schedule: Q01DX009 (ip), vehicle: Klucel (hydroxypropylcellulose) (HPC)) 106 % of control; (dose: 0.5 mg/kg/injection, schedule: Q01DX009 (ip), vehicle: Klucel (hydroxypropylcellulose) (HPC)) 109 % of control; (dose: 1.0 mg/kg/injection, schedule: Q01DX009 (ip), vehicle: Klucel (hydroxypropylcellulose) (HPC)) 120 % of control.

For `O=C1CN(Cc2ccccc2)CC(=O)N2C(c3ccccc3)CCCN12` (stereo not given), the T/C under setting [1] is 97 % of control, the T/C under setting [2] was 87 % of control and the T/C under setting [3] was 92 % of control.

As to `C/C(=N\NC(=O)C(=O)N/N=C(\C)c1ccccc1)c1ccccc1`, the T/C is 96 % of control under setting [4] and 91 % of control under setting [5].

For `O=c1c2ccccc2c2nc3ccc4c(=O)c5ccccc5c5nc6ccc1c2c6c3c45`, the T/C under setting [1] was 100 % of control and the T/C under setting [2] was 100 % of control.

As for `CC(C)C1CCC2=C(CCC3C(C)(C(=O)O)CCCC23C)C1` (stereo not given), the T/C was 109 % of control (dose: 100.0 mg/kg/injection, schedule: Q01DX009 (ip), vehicle: saline); 100 % of control (dose: 200.0 mg/kg/injection, schedule: Q01DX009 (ip), vehicle: saline); 100 % of control (dose: 400.0 mg/kg/injection, schedule: Q01DX009 (ip), vehicle: saline).

Take `c1ccc2c(c1)C1CCC2c2ccccc21`: the T/C was 100 % of control under setting [6]; 100 % of control under setting [7]; 88 % of control and 100 % of control under setting [8]; 100 % of control under setting [9].

For the compound `CCCCCCCCCCCCOP(N)(=O)OCCCCCCCCCCCC`, the T/C by setting is: (dose: 10.0 mg/kg/injection, schedule: Q01DX009 (ip), vehicle: Klucel (hydroxypropylcellulose) (HPC)) 103 % of control; (dose: 20.0 mg/kg/injection, schedule: Q01DX009 (ip), vehicle: Klucel (hydroxypropylcellulose) (HPC)) 106 % of control; (dose: 40.0 mg/kg/injection, schedule: Q01DX009 (ip), vehicle: Klucel (hydroxypropylcellulose) (HPC)) 106 % of control; under setting [4], 109 % of control; under setting [5], 113 % of control; under setting [10], 105 % of control. For the same compound, the T/C runs as follows: under setting [7], 109 % of control; (dose: 200.0 mg/kg/injection, schedule: Q04DX003 (ip), vehicle: Klucel (hydroxypropylcellulose) (HPC)) 97 % of control; under setting [8], 109 % of control; (dose: 400.0 mg/kg/injection, schedule: Q04DX003 (ip), vehicle: Klucel (hydroxypropylcellulose) (HPC)) 121 % of control.

On to `COc1cc(/C=N\NC(=O)CC#N)cc(OC)c1OC`, for which the T/C is, setting by setting: under setting [4], 90 % of control; under setting [6], 95 % of control; under setting [5], 104 % of control; under setting [7], 95 % of control; under setting [11], 100 % of control; under setting [8], 95 % of control.

In the case of `COc1cc(OC)c(NC(=S)Nc2cc(C)ccc2OC)cc1Cl`, the T/C was 97 % of control (dose: 12.5 mg/kg/injection, schedule: Q01DX009 (ip), vehicle: DMSO) and 93 % of control (dose: 25.0 mg/kg/injection, schedule: Q01DX009 (ip), vehicle: DMSO).

As to `CN(C)c1ccc(/C=C/c2ccnc3ccccc23)cc1`, the T/C was 95 % of control and 100 % of control (dose: 5.0 mg/kg/injection, schedule: Q01DX010 (ip), vehicle: saline); 100 % of control (dose: 9.0 mg/kg/injection, schedule: Q01DX010 (ip), vehicle: saline); 95 % of control and 100 % of control (dose: 10.0 mg/kg/injection, schedule: Q01DX010 (ip), vehicle: saline); 109 % of control (dose: 18.0 mg/kg/injection, schedule: Q01DX010 (ip), vehicle: saline); 90 % of control and 100 % of control (dose: 20.0 mg/kg/injection, schedule: Q01DX010 (ip), vehicle: saline); 109 % of control (dose: 35.0 mg/kg/injection, schedule: Q01DX010 (ip), vehicle: saline). Besides, the T/C (dose: 40.0 mg/kg/injection, schedule: Q01DX010 (ip), vehicle: saline) is 100 % of control.

With `O=[N+]([O-])c1ccc2c(c1)[nH]c1ccccc12`, the T/C was 113 % of control under setting [4], 115 % of control under setting [5] and 114 % of control under setting [11].

In the case of `C[N+](C)(C)/N=C1\CCc2ccccc21`, the T/C is, setting by setting: under setting [6], 95 % of control; under setting [7], 95 % of control; under setting [8], 95 % of control.

Regarding `CSc1nc(N)cc(NC(=O)CCl)n1`, the T/C reads like this: (dose: 25.0 mg/kg/injection, schedule: Q01DX009 (ip), vehicle: Klucel (hydroxypropylcellulose) (HPC)) 113 % of control; (dose: 50.0 mg/kg/injection, schedule: Q01DX009 (ip), vehicle: Klucel (hydroxypropylcellulose) (HPC)) 95 % of control; under setting [4], 100 % of control; (dose: 50.0 mg/kg/injection, schedule: Q04DX003 (ip), vehicle: Klucel (hydroxypropylcellulose) (HPC)) 113 % of control; (dose: 100.0 mg/kg/injection, schedule: Q01DX009 (ip), vehicle: Klucel (hydroxypropylcellulose) (HPC)) 122 % of control; under setting [5], 100 % of control. Under setting [10], the T/C is 118 % of control.

On to `COC(=O)CC1(O)C=CC(=O)C=C1`, for which the T/C is 165 % of control (dose: 2.0 mg/kg/injection, schedule: Q01DX009 (ip), vehicle: saline); 114 % of control under setting [12]; 116 % of control under setting [13]; 153 % of control (dose: 25.0 mg/kg/injection, schedule: Q01DX009 (ip), vehicle: saline).

Turning to `COC1CC(C)(O)C(OC2CCC(OC(=O)C(C)C(O)c3ccc4c(c3)C(=O)C=C(C)C4=O)C(C)O2)C(C)O1` (stereo not given), the T/C is, setting by setting: (dose: 1.25 mg/kg/injection, schedule: Q01DX009 (ip), vehicle: saline) 100 % of control and 103 % of control; (dose: 2.5 mg/kg/injection, schedule: Q01DX009 (ip), vehicle: saline) 94 % of control and 100 % of control; under setting [12], 99 % of control; under setting [13], 99 % of control.

On to `CC12COC(=O)CC1CCC1C2CCC2(C)C1CCC2(C)O` (stereo not given), for which the T/C under setting [4] is 90 % of control, the T/C under setting [5] was 95 % of control and the T/C under setting [11] is 100 % of control.

For `C[C@]12CC[C@H](O)CC1=CC[C@@H]1[C@@H]2CC[C@]2(C)c3nc4ccccc4cc3C[C@@H]12`, under setting [8], the T/C is 95 % of control.

For the compound `CCOP(=S)(OCC)Oc1cnn(C)c(=S)c1Cl`, the T/C was 98 % of control under setting [1], 101 % of control under setting [2] and 108 % of control under setting [3].

With `OC(CCl)COCC#Cc1ccccc1` (stereo not given), the T/C is, setting by setting: (dose: 25.0 mg/kg/injection, schedule: Q04DX003 (ip), vehicle: saline with Tween-80) 105 % of control; under setting [6], 100 % of control; under setting [5], 95 % of control; under setting [7], 115 % of control; under setting [11], 112 % of control; under setting [8], 95 % of control. For the same compound, the T/C (dose: 400.0 mg/kg/injection, schedule: Q01DX009 (ip), vehicle: saline with Tween-80) is 116 % of control and the T/C under setting [9] is 95 % of control.

The values are drawn from PubChem BioAssay AID328 (DTP/NCI, 2004).
